Literature values, collected in patent publication US10352920B2, “Supplements and monitoring systems for dosing of the supplements” (i-CalQ, LLC, priority 2012, dated 2019).
Values belong to the compound of their own block, whether it stands above or below them.

What was measured:
[1] = system: athletes involved in cycling, weight training and endurance running; conditions: sports nutrition studies
[2] = system: lipoxygenase; conditions: in vitro
[3] = dietary curcumin
[4] = target: inducible nitric oxide synthase (Homo sapiens, UniProt P35228); conditions: in vitro
Sequence of inducible nitric oxide synthase (P35228 whole entry): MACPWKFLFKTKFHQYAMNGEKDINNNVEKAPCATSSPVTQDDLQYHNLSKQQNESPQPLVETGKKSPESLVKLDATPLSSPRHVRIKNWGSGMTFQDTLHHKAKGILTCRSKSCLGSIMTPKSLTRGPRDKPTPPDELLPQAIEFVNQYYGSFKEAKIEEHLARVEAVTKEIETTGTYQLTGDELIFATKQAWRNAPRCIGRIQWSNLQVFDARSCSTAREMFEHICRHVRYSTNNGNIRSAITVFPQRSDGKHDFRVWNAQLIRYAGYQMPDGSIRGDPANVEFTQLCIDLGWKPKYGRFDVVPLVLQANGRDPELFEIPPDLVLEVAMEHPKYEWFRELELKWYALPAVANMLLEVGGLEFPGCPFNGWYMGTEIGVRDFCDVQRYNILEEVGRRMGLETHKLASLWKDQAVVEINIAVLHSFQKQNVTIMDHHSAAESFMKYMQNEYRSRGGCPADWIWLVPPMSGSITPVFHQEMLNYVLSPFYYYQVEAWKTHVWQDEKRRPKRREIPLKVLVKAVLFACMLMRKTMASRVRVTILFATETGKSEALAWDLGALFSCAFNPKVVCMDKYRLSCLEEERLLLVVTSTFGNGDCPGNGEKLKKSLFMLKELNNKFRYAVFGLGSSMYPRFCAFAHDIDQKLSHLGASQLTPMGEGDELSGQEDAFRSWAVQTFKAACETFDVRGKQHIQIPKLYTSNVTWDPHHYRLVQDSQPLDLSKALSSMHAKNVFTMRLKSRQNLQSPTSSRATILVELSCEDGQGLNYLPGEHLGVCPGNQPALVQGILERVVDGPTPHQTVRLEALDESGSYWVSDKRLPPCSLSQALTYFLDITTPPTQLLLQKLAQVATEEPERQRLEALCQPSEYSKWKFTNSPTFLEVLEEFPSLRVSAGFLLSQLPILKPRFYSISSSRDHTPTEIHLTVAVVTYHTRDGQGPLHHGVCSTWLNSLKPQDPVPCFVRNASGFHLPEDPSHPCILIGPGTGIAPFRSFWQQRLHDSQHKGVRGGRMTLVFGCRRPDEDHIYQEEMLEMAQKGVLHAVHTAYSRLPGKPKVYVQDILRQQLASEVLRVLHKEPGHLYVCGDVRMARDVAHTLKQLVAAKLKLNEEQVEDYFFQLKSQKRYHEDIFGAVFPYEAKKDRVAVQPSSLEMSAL

[5] = system: cortisol; conditions: ingestion of 1 gram for 7 days
[6] = system: cognitive function; conditions: administration of 9 grams

Compound: phosphotidylserine
muscle soreness [1]: prevent muscle soreness
recovery [1]: speed up recovery
well-being [1]: improve well-being

activity of lipoxygenase [2]: down-regulating the activity
bioavailability (levels in plasma and tissues) [3]: poor bioavailability
activity of inducible nitric oxide synthase [4]: down-regulating the activity
Compound: COc1cc(/C=C/C(=O)CC(=O)/C=C/c2ccc(O)c(OC)c2)ccc1O [curcumin]

Compound: O=C1O[C@H]([C@@H](O)CO)C(O)=C1O [vitamin C]
cortisol rise in response to lipopolysaccharide administration [5]: blunts the cortisol rise

Compound: N[C@@H](Cc1ccc(O)cc1)C(=O)O [tyrosine]
cognitive function following experimentally induced hypothermia [6]: improves cognitive function
